Measurements from patent US20230278972A1, “SUBSTITUTED HALOALKYL SULFONANILIDE HERBICIDES” (FMC Corporation, priority 2020, published 2023).

Key:
Assay type in all cases: in vivo
[1] = system: barnyardgrass (Echinochloa crus-galli); assay: Test A preemergence, barnyardgrass; settings: Preemergence; for Barnyardgrass plant response rating: 125 g ai/ha, visual injury on 0 to 100 scale (0 no effect, 100 complete control), approximately 10 days; for Plant response rating, Barnyardgrass: 0 to 100 scale (0 no effect, 100 complete control)
Summary of the method: (§1)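 Whole-plant herbicidal screen in pots of loam blended with sand. Sprays used a surfactant-containing, non-phytotoxic solvent vehicle. Timing was preemergence soil-directed at planting or postemergence at the one- to two-leaf stage (2–10 cm).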

kochia (Bassia scoparia) [2] = assay: Test A preemergence, kochia; settings: Preemergence; for Kochia plant response rating: 125 g ai/ha, visual injury on 0 to 100 scale (0 no effect, 100 complete control), approximately 10 days; for Plant response rating, Kochia: 0 to 100 scale (0 no effect, 100 complete control)
Summary of the method: as §1

[3] = system: Ryegrass, Italian (Italian ryegrass, Lolium multiflorum); assay: Test A preemergence, Ryegrass, Italian; settings: Preemergence; for Ryegrass, Italian plant response rating: 125 g ai/ha, visual injury on 0 to 100 scale (0 no effect, 100 complete control), approximately 10 days; for Plant response rating, Ryegrass, Italian: 0 to 100 scale (0 no effect, 100 complete control)
Summary of the method: as §1

[4] = system: Foxtail, Giant (giant foxtail, Setaria faberi); assay: Test A preemergence, Foxtail, Giant; settings: Preemergence; for Foxtail, Giant plant response rating: 125 g ai/ha, visual injury on 0 to 100 scale (0 no effect, 100 complete control), approximately 10 days; for Plant response rating, Foxtail, Giant: 0 to 100 scale (0 no effect, 100 complete control)
Summary of the method: as §1

[5] = system: pigweed (Amaranthus retroflexus); assay: Test A preemergence, pigweed; settings: for Pigweed plant response rating: 125 g ai/ha, visual injury on 0 to 100 scale (0 no effect, 100 complete control), approximately 10 days; for Plant response rating, Pigweed: 0 to 100 scale (0 no effect, 100 complete control)
Summary of the method: (§2)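 Greenhouse pot test in a loam–sand blend; compounds delivered in a non-phytotoxic solvent carrying a surfactant, applied either as a directed spray to soil at seeding or over seedlings 2 to 10 cm high with one to two leaves.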

[6] = system: barnyardgrass (Echinochloa crus-galli); assay: Test A postemergence, barnyardgrass; settings: Postemergence, 0 to 100 scale (0 no effect, 100 complete control)
Summary of the method: as §2

kochia (Bassia scoparia) [7] = assay: Test A postemergence, kochia; settings: Postemergence, 0 to 100 scale (0 no effect, 100 complete control)
Summary of the method: as §1

[8] = system: ragweed (common ragweed, Ambrosia artemisiifolia); assay: Test A postemergence, ragweed; settings: Postemergence, 0 to 100 scale (0 no effect, 100 complete control)
Summary of the method: as §1

[9] = system: Ryegrass, Italian (Italian ryegrass, Lolium multiflorum); assay: Test A postemergence, Ryegrass, Italian; settings: Postemergence, 0 to 100 scale (0 no effect, 100 complete control)
Summary of the method: as §1

[10] = system: Foxtail, Giant (giant foxtail, Setaria faberi); assay: Test A postemergence, Foxtail, Giant; settings: Postemergence, 0 to 100 scale (0 no effect, 100 complete control)
Summary of the method: as §1

[11] = system: pigweed (Amaranthus retroflexus); assay: Test A postemergence, pigweed; settings: Postemergence, 0 to 100 scale (0 no effect, 100 complete control)
Summary of the method: as §1

[12] = system: wheat (Triticum aestivum); assay: Test A postemergence, wheat; settings: Postemergence, 0 to 100 scale (0 no effect, 100 complete control)
Summary of the method: as §2

corn (Zea mays) = assay: Test A postemergence, corn; settings: Postemergence, 0 to 100 scale (0 no effect, 100 complete control)
Summary of the method: as §1

[13] = system: blackgrass (Alopecurus myosuroides); assay: Test A postemergence, blackgrass; settings: Postemergence, 0 to 100 scale (0 no effect, 100 complete control)
Summary of the method: as §1

[14] = system: galium (catchweed bedstraw, Galium aparine); assay: Test A postemergence, galium; settings: Postemergence, 0 to 100 scale (0 no effect, 100 complete control)
Summary of the method: as §2

[15] = 125 g ai/ha, visual injury approx. 10 days
[16] = 500 g ai/ha, visual injury, approx. 10 days
[17] = 1000 g ai/ha, visual injury, approx. 10 days

SMILES | Plant response rating, Barnyardgrass ([1]; 500 g ai/ha) | Kochia plant response rating (kochia (Bassia scoparia) [2]) | Plant response rating, Kochia (kochia (Bassia scoparia) [2]; 500 g ai/ha) | Ryegrass, Italian plant response rating [3] | Plant response rating, Ryegrass, Italian ([3]; 500 g ai/ha) | Foxtail, Giant plant response rating [4] | Plant response rating, Foxtail, Giant ([4]; 500 g ai/ha) | Pigweed plant response rating [5] | Plant response rating, Pigweed ([5]; 500 g ai/ha) | Plant response rating, Barnyardgrass [6, 15] | Plant response rating, Barnyardgrass [6, 16] | Plant response rating, Kochia (kochia (Bassia scoparia) [7]; [15]) | Plant response rating, Kochia (kochia (Bassia scoparia) [7]; [16]) | Plant response rating, Ragweed [8, 15] | Plant response rating, Ragweed [8, 16] | Plant response rating, Ryegrass, Italian [9, 15] | Plant response rating, Ryegrass, Italian [9, 16] | Plant response rating, Foxtail, Giant [10, 15] | Plant response rating, Foxtail, Giant [10, 16] | Plant response rating, Pigweed [11, 15] | other results
CCN(CC)C(=O)c1cc(NS(=O)(=O)C(F)(F)F)c(Cl)cc1C [Compound 21] | 100 | 0 | 0 | 30 | 100 | 20 | 100 | 40 | 60 | 20 | 40 | 10 | 30 | 50 | 90 | 0 | 50 | 0 | 20 | 0 | Barnyardgrass plant response rating [1]: 80; Plant response rating, Pigweed [11, 16]: 40; Plant response rating, Wheat [12, 15]: 0; Plant response rating, Wheat [12, 16]: 30; Plant response rating, Corn (corn (Zea mays); [15]): 0; Plant response rating, Corn (corn (Zea mays); [16]): 30; Plant response rating, Blackgrass [13, 15]: 10; Plant response rating, Blackgrass [13, 16]: 10; Plant response rating, Galium [14, 15]: 50; Plant response rating, Galium [14, 16]: 60
Cc1ccc(C(=O)N2CCC(C(F)(F)F)CC2)cc1NS(=O)(=O)C(F)(F)F [Compound 263] |  |  |  |  |  |  |  |  |  |  |  |  |  |  |  |  |  |  |  |  | Plant response rating, Barnyardgrass ([1]; 1000 g ai/ha): 30; Plant response rating, Kochia (kochia (Bassia scoparia) [2]; 1000 g ai/ha): 20; Plant response rating, Ryegrass, Italian ([3]; 1000 g ai/ha): 50; Plant response rating, Foxtail, Giant ([4]; 1000 g ai/ha): 70; Plant response rating, Pigweed ([5]; 1000 g ai/ha): 60; Plant response rating, Barnyardgrass [6, 17]: 30; Plant response rating, Kochia (kochia (Bassia scoparia) [7]; [17]): 10; Plant response rating, Ragweed [8, 17]: 0; Plant response rating, Ryegrass, Italian [9, 17]: 80; Plant response rating, Foxtail, Giant [10, 17]: 0; Plant response rating, Pigweed [11, 17]: 0; Plant response rating, Wheat [12, 17]: 0; Plant response rating, Corn (corn (Zea mays); [17]): 20; Plant response rating, Blackgrass [13, 17]: 20; Plant response rating, Galium [14, 17]: 60
Cc1cc(Br)c(NS(=O)(=O)C(F)(F)F)cc1C(=O)N1CCOCC1 [Compound 14] | 90 | 70 | 90 | 60 | 100 | 70 | 80 | 80 | 90 | 40 | 80 | 40 | 70 | 60 | 70 | 0 | 30 | 40 | 70 | 60 | Plant response rating, Pigweed [11, 16]: 90; Plant response rating, Wheat [12, 15]: 30; Plant response rating, Wheat [12, 16]: 70; Plant response rating, Corn (corn (Zea mays); [15]): 0; Plant response rating, Corn (corn (Zea mays); [16]): 20; Plant response rating, Blackgrass [13, 15]: 10; Plant response rating, Blackgrass [13, 16]: 40; Plant response rating, Galium [14, 15]: 70; Plant response rating, Galium [14, 16]: 80
Cc1cc(Cl)c(NS(=O)(=O)C(F)(F)F)cc1C(=O)N(C)C [Compound 23] | 100 | 80 | 80 | 40 | 100 | 70 | 100 | 80 | 100 | 50 | 70 | 40 | 70 | 80 | 80 | 30 | 80 | 50 | 90 | 70 | Barnyardgrass plant response rating [1]: 90; Plant response rating, Pigweed [11, 16]: 80; Plant response rating, Wheat [12, 15]: 50; Plant response rating, Wheat [12, 16]: 70; Plant response rating, Corn (corn (Zea mays); [15]): 20; Plant response rating, Corn (corn (Zea mays); [16]): 70; Plant response rating, Blackgrass [13, 15]: 30; Plant response rating, Blackgrass [13, 16]: 30; Plant response rating, Galium [14, 15]: 80; Plant response rating, Galium [14, 16]: 90
Cc1cc(C)c(N(S(=O)(=O)C(F)(F)F)S(=O)(=O)C(F)(F)F)cc1C(=O)N1CCSCC1 [Compound 5] |  |  |  |  |  |  |  |  |  |  |  |  |  |  |  |  |  |  |  |  | Plant response rating, Barnyardgrass ([1]; 1000 g ai/ha): 100; Plant response rating, Kochia (kochia (Bassia scoparia) [2]; 1000 g ai/ha): 90; Plant response rating, Ryegrass, Italian ([3]; 1000 g ai/ha): 100; Plant response rating, Foxtail, Giant ([4]; 1000 g ai/ha): 100; Plant response rating, Pigweed ([5]; 1000 g ai/ha): 100; Plant response rating, Barnyardgrass [6, 17]: 80; Plant response rating, Kochia (kochia (Bassia scoparia) [7]; [17]): 80; Plant response rating, Ragweed [8, 17]: 80; Plant response rating, Ryegrass, Italian [9, 17]: 30; Plant response rating, Foxtail, Giant [10, 17]: 90; Plant response rating, Pigweed [11, 17]: 80; Plant response rating, Wheat [12, 17]: 60; Plant response rating, Corn (corn (Zea mays); [17]): 10; Plant response rating, Blackgrass [13, 17]: 0; Plant response rating, Galium [14, 17]: 90
